According to US7129244B2, “Triazolopyrimidines and related analogs as HSP90-inhibitors” (Conforma Therapeutics Corporation, priority 2003, dated 2006):

tested on: MCF7 breast carcinoma cells; assay: MTS Assay; type: cell-based; details: Homo sapiens, concentration giving 50% viable cell number
Procedure: MTS assays measures the cytotoxicity of geldanamycin derivatives. MTS (3-(4,5-dimethylthiazol-2-yl)-5-(3-carboxymethoxyphenyl)-2-(4-sulfophenyl)-2H-tetrazolium is a tetrazolium dye that is converted to a formazan product by dehydrogenase enzymes of metabolically active cells (Corey, A. et al. “Use of an aqueous soluble tetrazolium/formazan assay for cell growth assays in culture,” Cancer Commun. 1991, 3, 207–212). Cells were seeded in 96 well plates at 2000 cells/well and allowed to adhere overnight in Dulbecco's modified Eagle's medium supplemented with 10% fetal bovine serum. The final culture volume was 100 μl. Viable cell number was determined by using the Celltiter 96 AQueous Non-radioactive Cell Proliferation Assay (Promega, Madison Wis.). The MTS/PMS (phenazine methosulfate) solution was mixed at a ratio of 20:1, and 20 μL was added per well to 100 μl of culture medium. After 2–4 hours, the formation of the formazan product was measured at 490 nm absorbance using a multiwell plate spectrophotometer. Background was determined by measuring the Abs 490 nm of cell culture medium and MTS-PMS in the absence of cells and was subtracted from all values. Percent viable cells was calculated as follows: % viable cells=(Abs at 490 nm treated cells/Abs at 490 nm untreated cells)×100 […]

Structure (SMILES) | IC50 [µM]
COc1c(C)cnc(Cn2nnc3c(Cl)nc(N)nc32)c1C [Example 1, 7-chloro-3-(4-methoxy-3,5-dimethyl-pyridin-2-ylmethyl)-3H-[1,2,3]triazolo[4,5-d]pyrimidin-5-ylamine] | 8

tested on: HER2/Neu protein; assay: HER2 Degradation Assay; type: cell-based; details: Homo sapiens, MCF7, 16 h, MCF7 breast carcinoma cells, 16 h incubation; concentration at which there was 50% degradation of the HER2/Neu protein
Procedure: MCF7 breast carcinoma cells (ATCC) were grown in Dulbecco's modified Eagle's medium (DMEM) containing 10% fetal bovine serum (FBS) and 10 mM HEPES, and plated in 24 well plates (50% confluent). Twenty-four hrs later (cells are 65–70% confluent), test compounds were added and incubated overnight for 16 h. […] The wells were washed with 1 mL phosphate buffered saline (PBS), and 200 μL trypsin was added to each well. After trypsinization was complete, 50 μL of FBS was added to each well. Then 200 μL cells was transferred to 96 well plates. The cells were pipetted up and down to obtain a single cell suspension. The plates were centrifuged at 2,500 rpm for 1 min using a Sorvall Legend RT™ tabletop centrifuge (Kendro Laboratory Products, Asheville, N.C.). The cells were then washed once in PBS containing 0.2% BSA and 0.2% sodium azide (BA buffer). Phycoerythrin (PE) conjugated anti HER2/Neu antibody (Becton Dickinson, #340552), or PE conjugated anti-keyhole limpet hemacyanin [KLH] (Becton Dickinson, #340761) control antibody was added at a dilution of 1:20 and 1:40 respectively (final concentration was 1 μg/mL) and the cells were pipeted up and down to form a single cell suspension, and incubated for 15 mins. The cells were washed twice with 200 μL BA buffer, and resuspended in 200 μL BA buffer, and transferred to FACSCAN tubes with an additional 250 μL BA buffer. Samples were analyzed using a FACSCalibur™ flow cytometer (Becton Dickinson, San Jose, Calif.) equipped with Argon-ion laser that emits 15 mW of 488 nm light for excitation of the PE fluorochrome. 10,000 events were collected per sample. A fluorescence histogram was generated and the mean fluorescence intensity (MFI) of each sample was determined using Cellquest software. The background was defined as the MFI generated from cells incubated with control IgG-PE, and was subtracted from each sample stained with the HER2/Neu antibody. Cells incubated with DMSO was always done as untreated controls since the compounds were resuspended in DMSO. Percent degradation of HER2 was calculated as follows: % HER2 degraded=[(MFl untreated cells−MFl treated cells)/MFl untreated cell]×100
IC50 is defined as the concentration at which there was 50% degradation of the HER2/Neu protein.

Structure (SMILES) | IC50 [µM]
COc1c(C)cnc(Cn2nnc3c(Cl)nc(N)nc32)c1C [Example 1, 7-chloro-3-(4-methoxy-3,5-dimethyl-pyridin-2-ylmethyl)-3H-[1,2,3]triazolo[4,5-d]pyrimidin-5-ylamine] | 0.4
COc1cc(Cn2nnc3c(Cl)nc(N)nc32)cc(OC)c1OC [Example 5, 7-chloro-3-(3,4,5-trimethoxy-benzyl)-3H-[1,2,3]triazolo[4,5-d]pyrimidin-5-ylamine] | 15
COc1cc(Cn2nnc3c(Cl)nc(N)nc32)c(Cl)c(OC)c1OC [Example 6, 7-chloro-3-(2-chloro-3,4,5-trimethoxy-benzyl)-3H-[1,2,3]triazolo[4,5-d]pyrimidin-5-ylamine] | 12
COc1c(Cl)c(Cn2nnc3c(Cl)nc(N)nc32)c(Cl)c(OC)c1OC [Example 7, 7-Chloro-3-(2,6-dichloro-3,4,5-trimethoxy-benzyl)-3H-[1,2,3]triazolo[4,5-d]pyrimidin-5-ylamine] | 4
COc1cc(Cn2nnc3c(Cl)nc(N)nc32)c(Br)c(OC)c1OC [Example 8, 7-chloro-3-(2-bromo-3,4,5-trimethoxy-benzyl)-3H-[1,2,3]triazolo[4,5-d]pyrimidin-5-ylamine] | 6.5
COc1c(Br)c(Cn2nnc3c(Cl)nc(N)nc32)c(Br)c(OC)c1OC [Example 9, 7-Chloro-3-(2,6-dibromo-3,4,5-trimethoxy-benzyl)-3H-[1,2,3]triazolo[4,5-d]pyrimidin-5-ylamine] | 6.3
COc1cc(Cn2nnc3c(Cl)nc(N)nc32)c(I)c(OC)c1OC [Example 10, 7-chloro-3-(2-iodo-3,4,5-trimethoxy-benzyl)-3H-[1,2,3]triazolo [4,5-d]pyrimidin-5-ylamine] | 10
COc1cc(Cn2nnc3c(Cl)nc(N)nc32)c(Cl)c(OC)c1 [Example 12, 7-chloro-3-(2-chloro-3,5-dimethoxy-benzyl)-3H-[1,2,3]triazolo[4,5-d]pyrimidin-5-ylamine] | 8.5
COc1cc(Cn2nnc3c(Cl)nc(N)nc32)c(Br)c(OC)c1 [Example 13, 7-chloro-3-(2-bromo-3,5-dimethoxy-benzyl)-3H-[1,2,3]triazolo[4,5-d]pyrimidin-5-ylamine] | 16
COc1cc(Cn2nnc3c(Cl)nc(N)nc32)c(OC)cc1Br [Example 16, 7-chloro-3-(4-bromo-2,5-dimethoxy-benzyl)-3H-[1,2,3]triazolo[4,5-d]pyrimidin-5-ylamine] | 22
COc1cc(Cl)c(OC)c(Cn2nnc3c(Cl)nc(N)nc32)c1 [Example 17, 7-chloro-3-(3-chloro-2,5-dimethoxy-benzyl)-3H-[1,2,3]triazolo[4,5-d]pyrimidin-5-ylamine] | 19
